Test results as given in patent US20130053430A1, “MODULATION OF CETP EXPRESSION” (Isis Pharmaceuticals, Inc., priority 2010, published 2013).
Strand notation (5' to 3'): a small letter for the sugar, then the base; units joined by * are phosphorothioate-linked, units joined directly phosphodiester-linked; [ ] holds rarer units or linkages, { } end groups; capitals alone tell only the bases. e = 2'-O-(2-methoxyethyl) (MOE); [5mC] = 5-methylcytosine; d = 2'-deoxy (DNA)

How the values were obtained:
human CETP mRNA [1] = assay: Antisense inhibition of human CETP mRNA in primary hepatocytes from huCETP transgenic mice (Example 4); type: cell-based, mouse; conditions: cytofectin, ~24 hours
Description: Transgenic mice expressing human CETP, controlled by its natural flanking region, increase expression of this gene in response to hypercholesterolemia (Jiang, X. C. et al., J. Clin. Invest. 1992. 90: 1290-1295). These mice were utilized for the following studies. Antisense oligonucleotides targeted to a CETP nucleic acid and described in Example 1 were tested for their effect on CETP mRNA transcript in vitro. Cultured primary hepatocytes from huCETP transgenic mice, at a density of 17,500 cells per well in a 96-well plate, were transfected using cytofectin reagent with 100 nM or 200 nM antisense oligonucleotide. After approximately 24 hours, RNA was isolated from the cells and CETP mRNA levels were measured by quantitative real-time PCR. CETP mRNA transcript levels were adjusted according to total RNA content, as measured by the house-keeping gene, GAPDH mRNA levels. Results are presented in Table 6 as percent inhibition of CETP, relative to untreated control cells.

human CETP mRNA [2] = assay: Antisense inhibition of human CETP mRNA in SW872 liposarcoma cells (Example 1); type: cell-based; conditions: 150 nM antisense oligonucleotide, lipofectin, ~24 hours, relative to untreated control cells
Description: Antisense oligonucleotides targeted to a CETP nucleic acid were tested for their effect on CETP mRNA transcript in vitro. Cultured SW872 liposarcoma cells at a density of 50,000 cells per well in a 24-well plate were transfected using lipofectin reagent with 150 nM antisense oligonucleotide. After approximately 24 hours, RNA was isolated from the cells and CETP mRNA levels were measured by quantitative real-time PCR. A human primer probe set (forward sequence […], designated herein as SEQ ID NO: 38; reverse sequence GGCTCACGCCTTTGCTGTT, designated herein as SEQ ID NO: 39; probe sequence […], designated herein as SEQ ID NO: 40) was used to quantitate CETP mRNA. CETP mRNA transcript levels were adjusted according to total RNA content, as measured by the house-keeping gene, GAPDH mRNA levels. GAPDH was measured using a primer probe set with the sequence as set forth in SEQ ID NOs: 10, 11, 13. Results are presented as percent inhibition of CETP, relative to untreated control cells.
The antisense oligonucleotides in Table 3 are 5-10-5 gapmers, where the gap segment comprises ten 2′-deoxynucleosides and each wing segment comprises five 2′-MOE nucleosides. Each nucleotide in the 5′ wing segment and each nucleotide in the 3′ wing segment has a 2′-MOE modification. The internucleoside linkages throughout each gapmer are phosphorothioate (P═S) linkages. All cytosine residues throughout each gapmer are 5-methylcytosines. ‘Target start site’ indicates the 5′-most nucleotide to which the antisense oligonucleotide is targeted. ‘Target stop site’ indicates the 3′-most nucleotide to which the antisense oligonucleotide is targeted. All the antisense oligonucleotides listed in Table 3 target human CETP mRNA, designated herein as SEQ ID NO: 1 (GENBANK Accession No. M30185.1).

[3] = Plasma cholesterol and triglyceride levels in huApoB/huCETP/mLDLr mouse model (Example 7); type: in vivo, mice; conditions: huApoB+/−huCETP+/−mLDLr+/− mice (Groups B-E), ASO 25 mg/kg s.c. twice/week
Text: The huApoB^+/−huCETP^+/−mLDLr^+/− mice were divided into five groups of 5-7 mice each. […] The saline-injected group served as the control group to which oligonucleotide-treated groups were compared. […] This group served a negative control for the effects of the antisense oligonucleotides against CETP. The groups are further described in Table 27, and are designated letters A-F, by which they will be referred from henceforth.
HDL and LDL cholesterol were individually measured by HPLC. Triglyceride levels were measured on weeks 0, 3 and 6 with the use of a commercially available triglyceride kit (DCL Triglyceride Reagent; Diagnostic Chemicals Ltd.).

Compound	Percent inhibition of human CETP mRNA (human CETP mRNA [1]; 100 nM)	Percent inhibition of human CETP mRNA (human CETP mRNA [1]; 200 nM)	% inhibition (human CETP mRNA [2])	further results
ISIS 349469: 5-10-5 MOE gapmer TCTCGAAGTCAATGGACTGA (eT*e[5mC]*eT*e[5mC]*eG*dA*dA*dG*dT*d[5mC]*dA*dA*dT*dG*dG*eA*e[5mC]*eT*eG*eA)	40%	66%	70%	
ISIS 349472: 5-10-5 MOE gapmer GCACTCTACCAGAGTCACAG (eG*e[5mC]*eA*e[5mC]*eT*d[5mC]*dT*dA*d[5mC]*d[5mC]*dA*dG*dA*dG*dT*e[5mC]*eA*e[5mC]*eA*eG)	25%	45%	39%	
ISIS 349505: 5-10-5 MOE gapmer CACTACCTCGAGCCGAGACA (e[5mC]*eA*e[5mC]*eT*eA*d[5mC]*d[5mC]*dT*d[5mC]*dG*dA*dG*d[5mC]*d[5mC]*dG*eA*eG*eA*e[5mC]*eA)	98%	99%	55%	
ISIS 349491: 5-10-5 MOE gapmer AGCCGCCGACAACCTCTTGG (eA*eG*e[5mC]*e[5mC]*eG*d[5mC]*d[5mC]*dG*dA*d[5mC]*dA*dA*d[5mC]*d[5mC]*dT*e[5mC]*eT*eT*eG*eG)	60%	74%	45%	
ISIS 349445: 5-10-5 MOE gapmer CAGCAGGGTCTTCCTGGCCC (e[5mC]*eA*eG*e[5mC]*eA*dG*dG*dG*dT*d[5mC]*dT*dT*d[5mC]*d[5mC]*dT*eG*eG*e[5mC]*e[5mC]*e[5mC])	74%	71%	6%	
ISIS 349509: 5-10-5 MOE gapmer CATCTGCAGCAGCAGGAAGC (e[5mC]*eA*eT*e[5mC]*eT*dG*d[5mC]*dA*dG*d[5mC]*dA*dG*d[5mC]*dA*dG*eG*eA*eA*eG*e[5mC])	22%	83%	70%	
ISIS 349460: 5-10-5 MOE gapmer GCATCATGGCCTTCTCGCCC (eG*e[5mC]*eA*eT*e[5mC]*dA*dT*dG*dG*d[5mC]*d[5mC]*dT*dT*d[5mC]*dT*e[5mC]*eG*e[5mC]*e[5mC]*e[5mC])	67%	76%	80%	
ISIS 349489: 5-10-5 MOE gapmer GTTGAAGCCCCAGGTCTCCA (eG*eT*eT*eG*eA*dA*dG*d[5mC]*d[5mC]*d[5mC]*d[5mC]*dA*dG*dG*dT*e[5mC]*eT*e[5mC]*e[5mC]*eA)	47%	67%	48%	
ISIS 349450: 5-10-5 MOE gapmer GCAGTGGTGTGTAAGTGGCC (eG*e[5mC]*eA*eG*eT*dG*dG*dT*dG*dT*dG*dT*dA*dA*dG*eT*eG*eG*e[5mC]*e[5mC])	89%	59%	21%	
ISIS 349500: 5-10-5 MOE gapmer ACAGTCTTTGGTGTAATCTG (eA*e[5mC]*eA*eG*eT*d[5mC]*dT*dT*dT*dG*dG*dT*dG*dT*dA*eA*eT*e[5mC]*eT*eG)	41%	77%	72%	
ISIS 349468: 5-10-5 MOE gapmer TCAATACCCAGCCACCAGGC (eT*e[5mC]*eA*eA*eT*dA*d[5mC]*d[5mC]*d[5mC]*dA*dG*d[5mC]*d[5mC]*dA*d[5mC]*e[5mC]*eA*eG*eG*e[5mC])	53%	50%	33%	
ISIS 349463: 5-10-5 MOE gapmer CTGCTGGCGATGGACAAGTG (e[5mC]*eT*eG*e[5mC]*eT*dG*dG*d[5mC]*dG*dA*dT*dG*dG*dA*d[5mC]*eA*eA*eG*eT*eG)	58%	62%	77%	
ISIS 349487: 5-10-5 MOE gapmer CCCATCAGGCTGAGCATGAG (e[5mC]*e[5mC]*e[5mC]*eA*eT*d[5mC]*dA*dG*dG*d[5mC]*dT*dG*dA*dG*d[5mC]*eA*eT*eG*eA*eG)	84%	68%	73%	
ISIS 349503: 5-10-5 MOE gapmer GCGGTGATCATTGACTGCAG (eG*e[5mC]*eG*eG*eT*dG*dA*dT*d[5mC]*dA*dT*dT*dG*dA*d[5mC]*eT*eG*e[5mC]*eA*eG)	83%	89%	81%	
ISIS 349471: 5-10-5 MOE gapmer GTCAGCTGTGTGTTGATCTG (eG*eT*e[5mC]*eA*eG*d[5mC]*dT*dG*dT*dG*dT*dG*dT*dT*dG*eA*eT*e[5mC]*eT*eG)	70%	66%	32%	
ISIS 349444: 5-10-5 MOE gapmer TCCTGGCCCCAGAGATTCAC (eT*e[5mC]*e[5mC]*eT*eG*dG*d[5mC]*d[5mC]*d[5mC]*d[5mC]*dA*dG*dA*dG*dA*eT*eT*e[5mC]*eA*e[5mC])	59%	0%	20%	
ISIS 349478: 5-10-5 MOE gapmer ATGATGTTAGAGATGACGTT (eA*eT*eG*eA*eT*dG*dT*dT*dA*dG*dA*dG*dA*dT*dG*eA*e[5mC]*eG*eT*eT)	6%	33%	48%	
ISIS 349448: 5-10-5 MOE gapmer CCGTATATGTATGTCCGCCC (e[5mC]*e[5mC]*eG*eT*eA*dT*dA*dT*dG*dT*dA*dT*dG*dT*d[5mC]*e[5mC]*eG*e[5mC]*e[5mC]*e[5mC])	53%	40%	0%	
O=C(O)c1cccnc1 [Nicotinic acid, nicotinic acid, reference compound]				% HDL/total cholesterol ([3]; Week 0): 23%; HDL cholesterol levels ([3]; Week 0): 45 mg/dL; LDL cholesterol levels ([3]; Week 0): 122 mg/dL; Total cholesterol levels ([3]; Week 0): 195 mg/dL; Triglyceride levels ([3]; Week 0): 134 mg/dL; % HDL/total cholesterol ([3]; Week 3): 34%; HDL cholesterol levels ([3]; Week 3): 57 mg/dL; LDL cholesterol levels ([3]; Week 3): 102 mg/dL; Total cholesterol levels ([3]; Week 3): 169 mg/dL; Triglyceride levels ([3]; Week 3): 108 mg/dL; % HDL/total cholesterol ([3]; Week 6): 39%; HDL cholesterol levels ([3]; Week 6): 65 mg/dL; LDL cholesterol levels ([3]; Week 6): 102 mg/dL; Total cholesterol levels ([3]; Week 6): 170 mg/dL; Triglyceride levels ([3]; Week 6): 138 mg/dL
ISIS 133837: 5-10-5 MOE gapmer TCCACCAGCAGGTGCTCAGG (eT*e[5mC]*e[5mC]*eA*e[5mC]*d[5mC]*dA*dG*d[5mC]*dA*dG*dG*dT*dG*d[5mC]*eT*e[5mC]*eA*eG*eG)			70%	
